Several values for one entry are separate records, joined by “and”; a condition that tells them apart may be missing. Equal entries are not always repeated.
What was measured:
OVCAR-3 = assay: MTT assay, anti-proliferative effect on OVCAR-3 cells; assay type: cell-based, human; details: Homo sapiens, OVCAR-3, 72 h, read-out: IC50 OVCAR-3
Procedure: (§1) A549, OVCAR-3, HCT-116, and MCF-7 were purchased from American type culture collection (ATCC, USA). […] And all cell lines used in the experiment were tested for mycoplasma contamination every two weeks.
(§2) A549, OVCAR-3, HCT-116, and MCF-7 cells were seeded in 96-well plates, and then treated with target compounds for 72 h. Then, 20 µL MTT (5 mg/mL, in PBS) was added into each well, and dissolved in 150 µL DMSO after incubation for 4 h. Finally, the absorbance was measured with microplate reader (490 nm).

A549 cells = assay: Annexin-V/PI apoptosis assay by flow cytometry; assay type: cell-based, human; details: 48 h, P < 0.001
Procedure: PARP-1 inhibitors have been reported to induce further apoptosis of cancer cells, which was also confirmed by our previous studies. An annexin-V/PI binding assay was conducted in A549 cells to evaluate the capacity of compound 11b to induce apoptosis in cancer cells. […] (Fig. 4).
A549 cells were cultured in 6-well plates (3.0 × 10^5/well), and treated with DMSO (1%) or compound 11b for 48 h. The cells were then collected, washed with PBS, and stained with FITC-Annexin-V and PI (Promega Corporation, USA). Finally, the apoptosis of A549 cells was detected by flow cytometry (Becton Dickinson and Company, USA; FACS Calibur).

HIEC = assay: Selectivity index (SI) versus HIEC normal cells; assay type: cell-based; details: SI = CC50/IC50; Human normal intestinal epithelial cells; means ± SD
MCF-7 = assay: MTT assay, anti-proliferative effect on MCF-7 cells; assay type: cell-based, human; details: Homo sapiens, MCF7, 72 h, read-out: IC50 MCF-7
Procedure: as §1, §2

A549 = assay: MTT assay, anti-proliferative effect on A549 cells; assay type: cell-based, human; details: Homo sapiens, A549, 72 h, read-out: IC50 A549
Procedure: as §1, §2

PAR = assay: Western blot of PAR in A549 cells; assay type: cell-based, human; details: best effect at 4.0 µM, P < 0.001
Procedure: PARylation is a critical post-translational modification in which ADP-ribose units are added to a wide array of target proteins by PARP-1 [33–35]. PAR is the active product of PARP-1, and the biosynthesis of PAR will be reduced while PARP-1 is inhibited. Here, we used the western blot to evaluate PAR levels and PARP-1 expression.
(§3) The cells were plated in 6-well plates and incubated with different concentrations of compound 11b for a specified time. The cells were then collected, and tested using a standard western blot as described before.

IOSE80 = assay: Selectivity index (SI) versus IOSE80 normal cells; assay type: cell-based; details: SI = CC50/IC50; Human normal ovarian epithelial cells; means ± SD
HTB-125 = assay: Selectivity index (SI) versus HTB-125 normal cells; assay type: cell-based; details: SI = CC50/IC50; Human normal breast cell; means ± SD
HPAEpiC = assay: Selectivity index (SI) versus HPAEpiC normal cells; assay type: cell-based; details: SI = CC50/IC50; Human normal alveolar epithelial cells; means ± SD
PARP-1 = biological target: T1, PARP-1 (Homo sapiens, UniProt P09874); assay: PARP-1 enzyme inhibition, colorimetric 96-well PARP assay kit; assay type: biochemical; details: in vitro enzyme, Mean ± SD
T1 construct: purchased BPS Bioscience, USA 80,580
Procedure: (§4) The PARP-1 and PARP-2 inhibition assays were performed by the colorimetric 96-well PARP assay kits provided by BPS Bioscience, USA.

HCT-116 = assay: MTT assay, anti-proliferative effect on HCT-116 cells; assay type: cell-based, human; details: Homo sapiens, HCT-116, 72 h, read-out: IC50 HCT-116
Procedure: as §1, §2

[1] = system: Cleaved-Caspase 3 and Caspase 3; assay: Western blot of Caspase 3 and Cleaved-Caspase 3 in A549 cells; assay type: cell-based, human
Procedure: Meanwhile, we also detected the expression of Cleaved-Caspase 3 and Caspase 3 after different treatment concentrations to explore the mechanism of compound 11b inducing cell apoptosis.
as §3

PARP-2 = biological target: T2, PARP-2 (Homo sapiens, UniProt Q9UGN5); assay: PARP-2 enzyme inhibition, colorimetric 96-well PARP assay kit; assay type: biochemical; details: in vitro enzyme, Mean ± SD
T2 construct: purchased BPS Bioscience, USA 80,581
T2 sequence (Q9UGN5 whole entry): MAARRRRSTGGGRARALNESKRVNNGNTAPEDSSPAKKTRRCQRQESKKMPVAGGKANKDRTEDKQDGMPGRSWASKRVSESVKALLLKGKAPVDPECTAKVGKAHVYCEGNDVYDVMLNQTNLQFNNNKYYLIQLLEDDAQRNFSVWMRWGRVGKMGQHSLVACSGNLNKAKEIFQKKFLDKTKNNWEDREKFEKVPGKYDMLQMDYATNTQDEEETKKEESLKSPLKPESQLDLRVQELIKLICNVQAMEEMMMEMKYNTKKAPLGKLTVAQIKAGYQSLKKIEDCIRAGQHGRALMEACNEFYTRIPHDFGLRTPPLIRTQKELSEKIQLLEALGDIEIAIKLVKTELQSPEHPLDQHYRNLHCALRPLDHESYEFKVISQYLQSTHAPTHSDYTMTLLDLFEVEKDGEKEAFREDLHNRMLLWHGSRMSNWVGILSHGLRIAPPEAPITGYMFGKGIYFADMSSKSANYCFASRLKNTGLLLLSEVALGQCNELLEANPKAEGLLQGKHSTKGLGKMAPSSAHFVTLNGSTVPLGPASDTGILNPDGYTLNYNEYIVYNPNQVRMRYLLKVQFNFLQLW
Procedure: as §4

T1 sequence (P09874 whole entry): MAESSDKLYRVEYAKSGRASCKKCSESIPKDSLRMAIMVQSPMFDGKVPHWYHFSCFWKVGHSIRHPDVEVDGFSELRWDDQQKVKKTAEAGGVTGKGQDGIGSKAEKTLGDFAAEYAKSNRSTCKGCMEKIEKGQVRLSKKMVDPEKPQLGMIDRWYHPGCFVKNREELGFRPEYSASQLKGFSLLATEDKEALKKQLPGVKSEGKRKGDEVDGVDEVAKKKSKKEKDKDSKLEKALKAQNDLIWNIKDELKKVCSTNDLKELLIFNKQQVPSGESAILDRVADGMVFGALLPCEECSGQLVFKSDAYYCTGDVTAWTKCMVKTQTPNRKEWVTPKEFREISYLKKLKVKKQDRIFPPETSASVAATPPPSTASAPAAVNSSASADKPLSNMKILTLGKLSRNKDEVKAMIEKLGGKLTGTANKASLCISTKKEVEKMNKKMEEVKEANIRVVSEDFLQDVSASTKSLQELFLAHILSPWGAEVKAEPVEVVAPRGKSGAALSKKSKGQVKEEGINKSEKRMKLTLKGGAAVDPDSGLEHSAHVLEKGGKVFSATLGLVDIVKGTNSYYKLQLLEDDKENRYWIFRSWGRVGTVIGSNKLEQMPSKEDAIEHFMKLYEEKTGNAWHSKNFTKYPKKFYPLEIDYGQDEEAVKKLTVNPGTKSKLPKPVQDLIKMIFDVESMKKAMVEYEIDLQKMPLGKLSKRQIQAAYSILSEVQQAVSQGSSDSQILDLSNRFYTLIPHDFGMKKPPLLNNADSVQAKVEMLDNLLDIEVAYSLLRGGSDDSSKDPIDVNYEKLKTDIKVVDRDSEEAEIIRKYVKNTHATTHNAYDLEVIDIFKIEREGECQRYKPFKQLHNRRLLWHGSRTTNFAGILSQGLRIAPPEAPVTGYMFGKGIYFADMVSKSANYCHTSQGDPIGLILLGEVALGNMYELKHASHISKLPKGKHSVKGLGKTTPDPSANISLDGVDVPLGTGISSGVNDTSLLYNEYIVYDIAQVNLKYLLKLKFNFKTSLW

SMILES: OC1CCN(Cc2cn(-c3ccccc3F)nn2)C2(CCCCC2)c2ccccc21 (centres unmarked) [Compound 11b, 2-((1-(2-fluorophenyl)-1 H-1,2,3-triazol-4-yl)methyl)-2,3,4,5-tetrahydrospiro[benzo[c]azepine-1,1’-cyclohexan]-5-ol]
- IC50 (OVCAR-3): 4020 ± 240 nM
- induction of apoptosis in A549 cells (A549 cells): induce apoptosis in a dose-dependent manner
- SI HIEC (HIEC): 6.12 ± 1.76
- IC50 (MCF-7): 9210 ± 2540 nM
- IC50 (A549): 1950 ± 330 nM
- biosynthesis of PAR (PAR): reduce the biosynthesis of PAR
- SI IOSE80 (IOSE80): 10.57 ± 2.01
- SI HTB-125 (HTB-125): 7.06 ± 1.32
- SI HPAEpiC (HPAEpiC): 15.38 and 15.38 ± 0.97
- IC50 (PARP-1): 19.2 ± 1.63 nM
- IC50 (HCT-116): 7450 ± 1980 nM
- expression of Caspase 3 [1]: decreased with the increase of compound 11b concentration
- ratio of Cleaved-Caspase 3/Caspase 3 [1]: best at 4.0 µM
- IC50 (PARP-2): 32.6 ± 1.97 nM

From PMC10612255, “Discovery of novel 2,3,4,5-tetrahydrospiro[benzo[c]azepine-1,1’-cyclohexan]-5-ol derivatives as PARP-1 inhibitors” (BMC Chemistry, 2023)
